Results taken from article PMC6017415, “Carbamates as Potential Prodrugs and a New Warhead for HDAC Inhibition” (Molecules : A Journal of Synthetic Chemistry and Natural …, 2018).

Legend:
[1] = target: T1, recombinant human HDAC1 (Homo sapiens, UniProt Q13547); experiment: HDAC1 in vitro fluorescence-based inhibition assay (ZMAL substrate); format: biochemical; conditions: recombinant human HDAC1, ZMAL 10.5 µM, 90 min 37 °C; for IC50: read-out: IC50 (µM) ± SE HDAC1
T1 construct: purchased BPS Biosciences (San Diego, CA, USA)
T1 sequence (Q13547 whole entry): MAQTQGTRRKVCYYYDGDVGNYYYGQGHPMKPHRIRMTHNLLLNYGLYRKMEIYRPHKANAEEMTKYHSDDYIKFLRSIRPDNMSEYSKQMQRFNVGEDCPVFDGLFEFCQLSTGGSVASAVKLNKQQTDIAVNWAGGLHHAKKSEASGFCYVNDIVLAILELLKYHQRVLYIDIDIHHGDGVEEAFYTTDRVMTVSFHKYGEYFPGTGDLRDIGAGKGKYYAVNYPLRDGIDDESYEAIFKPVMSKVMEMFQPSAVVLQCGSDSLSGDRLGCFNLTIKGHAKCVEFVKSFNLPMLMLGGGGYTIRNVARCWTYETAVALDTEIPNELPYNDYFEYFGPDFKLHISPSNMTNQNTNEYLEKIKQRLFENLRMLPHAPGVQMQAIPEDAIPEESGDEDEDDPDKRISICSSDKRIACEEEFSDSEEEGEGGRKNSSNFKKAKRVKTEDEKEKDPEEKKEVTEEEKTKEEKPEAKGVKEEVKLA
From the text: (§1) In order to investigate a potential subtype selectivity among different HDAC classes, we first tested them against the recombinant histone deacetylases HDAC1 (class I) and HDAC6 (class llb). […] To further address this issue, we also tested the respective compounds against the class l histone deacetylase HDAC8 (also see Table 1).
(§2) Recombinant human HDAC1 and 6 were purchased from BPS Biosciences (San Diego, CA, USA), and recombinant human HDAC8 was produced as described before. Inhibition tests of human HDAC1 and 6 were conducted using carboxybenzyl acetyllysine aminomethylcoumarin (ZMAL) as a substrate. […] For testing of HDAC8, the commercial Fluor de Lys drug discovery kit (BML-KI178) (Enzo Life Sciences, Lausen, Switzerland) was used according to the manufacturer’s instruction. Briefly, the test compound, Fluor de Lys-HDAC8 substrate (50 μM), and enzyme were incubated for 90 min at 37 °C with subsequent addition of 50 μL of Developer II (BML-KI176) (Enzo Life Sciences, Lausen, Switzerland) and further incubation for 45 min at 30 °C. In both assays, trichostatin A (2 μM) was used to stop the reaction. Fluorescence in both cases was measured in a plate reader (BMG Polarstar, BMG Labtech, Ortenberg, Germany) with excitation at λ = 390 nm and emission at λ = 460 nm.

[2] = target: T2, recombinant human HDAC6 (Homo sapiens, UniProt Q9UBN7); experiment: HDAC6 in vitro fluorescence-based inhibition assay (ZMAL substrate); format: biochemical; conditions: recombinant human HDAC6, ZMAL 10.5 µM, 90 min 37 °C; for IC50: read-out: IC50 (µM) ± SE HDAC6
T2 construct: purchased BPS Biosciences (San Diego, CA, USA)
T2 sequence (Q9UBN7 1-1215): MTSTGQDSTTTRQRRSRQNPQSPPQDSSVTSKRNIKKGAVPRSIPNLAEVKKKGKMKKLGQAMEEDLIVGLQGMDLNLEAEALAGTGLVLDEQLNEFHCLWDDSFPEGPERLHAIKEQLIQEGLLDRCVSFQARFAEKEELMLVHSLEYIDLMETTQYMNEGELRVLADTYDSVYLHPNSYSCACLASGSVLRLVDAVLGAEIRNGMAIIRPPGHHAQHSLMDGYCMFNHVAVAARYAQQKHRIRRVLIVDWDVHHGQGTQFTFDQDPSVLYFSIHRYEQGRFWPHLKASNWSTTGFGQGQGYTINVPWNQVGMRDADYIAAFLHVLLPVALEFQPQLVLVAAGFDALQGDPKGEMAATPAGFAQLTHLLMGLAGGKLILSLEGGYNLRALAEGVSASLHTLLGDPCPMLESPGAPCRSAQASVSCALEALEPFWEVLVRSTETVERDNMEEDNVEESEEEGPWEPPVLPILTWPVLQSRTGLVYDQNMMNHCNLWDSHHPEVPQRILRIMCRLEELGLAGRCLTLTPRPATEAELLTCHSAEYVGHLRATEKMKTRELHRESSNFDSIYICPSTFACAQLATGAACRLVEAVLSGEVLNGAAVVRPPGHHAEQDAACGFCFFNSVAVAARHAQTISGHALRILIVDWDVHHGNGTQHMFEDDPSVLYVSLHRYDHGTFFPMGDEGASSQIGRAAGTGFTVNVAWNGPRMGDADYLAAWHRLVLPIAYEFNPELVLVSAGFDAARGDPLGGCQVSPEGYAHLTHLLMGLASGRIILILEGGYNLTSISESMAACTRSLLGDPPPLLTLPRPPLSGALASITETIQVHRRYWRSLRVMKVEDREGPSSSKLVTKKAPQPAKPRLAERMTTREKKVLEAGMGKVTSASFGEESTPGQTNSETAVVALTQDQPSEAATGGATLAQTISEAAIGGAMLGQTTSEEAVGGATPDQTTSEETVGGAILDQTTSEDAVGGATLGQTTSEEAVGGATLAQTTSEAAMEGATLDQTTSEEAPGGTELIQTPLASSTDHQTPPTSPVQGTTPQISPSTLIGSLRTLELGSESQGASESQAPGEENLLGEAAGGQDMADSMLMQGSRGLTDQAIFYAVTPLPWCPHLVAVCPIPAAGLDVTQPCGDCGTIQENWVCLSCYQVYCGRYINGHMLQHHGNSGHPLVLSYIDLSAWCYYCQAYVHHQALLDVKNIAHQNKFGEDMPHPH
From the text: as §1, §2

[3] = test system: acetylation of histone H3 and tubulin in HL60 cells; experiment: Western blot of acetylation levels of histone H3 and tubulin in HL60 cells; format: cell-based, human; conditions: 4 h
Description: An inhibition of deacetylation in this experiment is expected to lead to hyperacetylation of the respective proteins. Besides histone H3, acetylated tubulin was chosen as a target protein. As tubulin is only accepted as a target by HDAC 6 [21], this allows us to explore subtype selectivity in a cellular setting (see Figure 4).
HL60 cells were treated with the inhibitors in the given concentrations. Cells treated with dimethyl sulfoxide as a vehicle were used as controls. After an incubation time of 4 h, cells were transferred into 50-mL Falcon tubes and centrifuged (300× g, 5 min). The supernatant was removed, and the cells were washed with PBS, before they were transferred to 1.7-mL reaction tubes. The cells were lysated with Bio-Rad loading buffer, and the cell suspension was heated to 95 °C for 5 min. The proteins then were separated using a 15% SDS-polyacrylamide gel electrophoresis and transferred to a polyvinylidene fluoride (PVDF) membrane (Roti-PVDF, Carl Roth, Karlsruhe, Germany). Acetylation levels were detected using an anti-acetyl histone H3 antibody (Millipore, Billerica, MA, USA) and an anti-acetyl-α-tubulin antibody (Sigma Aldrich, St. Louis, MO, USA). An antibody directed against GAPDH (Sigma Aldrich) was used as a loading control.

[4] = test system: HL60 cells; experiment: Cell proliferation assay (CellTiter 96 AQueous) in HL60 cells; conditions: Homo sapiens, HL-60, 72 h, read-out: GI50 (µM) ± SE HL60
Description: (§3) To further investigate the inhibition properties of the carbamates, we tested their antiproliferative activity on human promyelocytic leukemia cells (HL60) and on human histiocytic lymphoma cells (U937).
(§4) HL60 or U937 cells were seeded in 96-well tissue culture plates at a density of 5 × 10^4 cells per well. Cells were immediately incubated with inhibitors. As these cells already differentiate with 1% DMSO content, inhibitors were prepared as 200× stock solutions in DMSO. In all cases, inhibitors were compared to DMSO vehicle only, and three replicates per concentration were used. Growth inhibition was determined using the CellTiter 96® AQueous Non-Radioactive Cell Proliferation Assay according to the manufacturer’s instructions. Briefly, 5 × 10^4 of HL60 or U937 cells per well were treated with DMSO stocks of the respective inhibitors or with DMSO in 100 µL cell culture medium and incubated for 72 h at 37 °C and 5% CO2 in transparent 96-well microtiter plates (PAA). Subsequently, 20 µL of the detection reagent (containing a tetrazolium salt) was added to each well and incubated for 4 more hours under the same conditions. After this time, absorption was measured at a wavelength of 490 nm (BMG Polarstar, BMG Labtech, Ortenberg, Germany).

[5] = target: T3, recombinant human HDAC8 (Homo sapiens, UniProt Q9BY41); experiment: HDAC8 in vitro inhibition assay (Fluor de Lys kit); format: biochemical; conditions: at 100 µM; read-out: Inhibition (%) @ Conc. (µM) HDAC8
T3 construct: made in house
T3 sequence (Q9BY41 1-377): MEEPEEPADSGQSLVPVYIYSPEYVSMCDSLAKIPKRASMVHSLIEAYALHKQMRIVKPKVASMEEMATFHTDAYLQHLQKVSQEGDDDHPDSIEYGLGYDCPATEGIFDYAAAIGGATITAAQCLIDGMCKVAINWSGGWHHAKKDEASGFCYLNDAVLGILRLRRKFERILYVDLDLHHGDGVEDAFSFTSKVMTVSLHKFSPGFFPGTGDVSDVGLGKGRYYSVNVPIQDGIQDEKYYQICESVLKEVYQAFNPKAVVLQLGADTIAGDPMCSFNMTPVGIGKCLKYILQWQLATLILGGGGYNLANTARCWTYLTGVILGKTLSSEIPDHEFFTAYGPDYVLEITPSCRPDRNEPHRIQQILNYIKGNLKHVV
From the text: as §1, §2

[6] = Stability analysis under in vitro assay conditions, HPLC quantification of released hydroxamic acid; format: physicochemical; conditions: in vitro assay conditions without substrate, HDAC1 present, compound 2.4 mM, 90 min 37 °C
Description: In order to address the question if the newly-synthesized carbamates are hydrolyzed during the assay procedure or if they really serve as HDAC inhibitors themselves, stability stress tests were performed. For this purpose, the compounds were subjected to the standard in vitro assay conditions, but without adding a substrate as, no enzyme conversion should be observed in these experiments. After 90 min of incubation at 37 °C, the release of SAHA of the different samples was detected and quantified via HPLC. This led to the finding that a release of SAHA could be detected for all samples (see Table 1). […] This means that the question if the carbamate scaffold represents a new warhead for HDAC inhibition or if the degradation to SAHA is solely responsible for the observed inhibitory effects cannot be resolved completely.
To test the stability of Compound 9 under assay conditions, we also performed stability analysis with HPLC quantification. This experiment led to the finding that 8.7% of the carbamate 9 is degraded under release of bufexamac during incubation time. This fraction of released bufexamac may contribute to in vitro and cellular HDAC inhibition, but the observed selectivity profile of the carbamate in the in vitro assays clearly implies an intrinsic HDAC activity of carbamates.
For stability tests, the carbamates were subjected to the described in vitro assay conditions (see above) without adding the substrate ZMAL and without the second incubation step with trypsin. Compounds were applied in a final concentration of 2.4 mM, and recombinant HDAC1 was used as the enzyme. After 90 min of incubation at 37 °C, the release of SAHA was detected via HPLC on an Agilent 1200 series device. The employed analytical column was a Kinetex 5u XB-C18, 100 Å, 250 × 4.6 mm (Phenomenex, Torrance, CA, USA) with the ReproSil 100 C18 5-µm precolumn (Jasco, Oklahoma City, OK, USA). The following conditions were applied: Eluent A: H2O containing 0.05% TFA, Eluent B: acetonitrile containing 0.05% TFA, linear gradient conditions (0–4 min, A = 90%, B = 10%; 4–29 min, linear increase to 100% of B; 29–31 min, B = 100%; 31.5–40 min, A = 10%, B = 90%); injection volume: 30 µL, flow rate: 1 mL/min; detection wavelength: λ = 254 nm. For evaluation, the ChemStation software from Agilent was used. To quantify the released amount of SAHA and bufexamac, calibration curves were plotted by incubating DMSO stocks of these compounds under in vitro assay conditions with final compound concentrations ranging from 1 µM–200 µM. HPLC analysis with the conditions described above led to the following equations: y = 13.935x − 27.918 for SAHA and y = 0.6099x + 1.1301 for bufexamac.

[7] = test system: HDAC activity in HL60 cells; experiment: Cellular HDAC inhibition assay (MAL substrate) in HL60 cells; conditions: Homo sapiens, HL-60, read-out: IC50 (µM) ± SE cellular HDAC inhibition HL60
Description: (§5) Therefore, we decided to adapt this assay for a cellular setting allowing us to verify the previous results by assessing HDAC inhibition in the human leukemia cell lines HL60 and U937 (see the right side of Table 2).
(§6) After 2 h of incubation, 50 µL substrate solution were added, containing tert-butyloxycarbonyl acetyl lysine aminomethylcoumarin (MAL) as a substrate (300 µM final assay concentration) and IGEPAL CA-630 (final concentration 0.05%). After 2 more hours of incubation at 37 °C and 5% CO2, 50 µL stop solution consisting of 0.5 µL TSA (100 µM) and 5 µL trypsin solution (10 mg/mL) in 44.5 µL cell buffer were added. This mixture was incubated for a further 20 min at 37 °C. Fluorescence was measured in a plate reader (BMG Polarstar) with excitation at λ = 390 nm and emission at λ = 460 nm.

[8] = test system: HDAC activity in U937 cells; experiment: Cellular HDAC inhibition assay (MAL substrate) in U937 cells; conditions: Homo sapiens, U-937, read-out: IC50 (µM) ± SE cellular HDAC inhibition U937
Description: as §5, §6

[9] = test system: U937 cells; experiment: Cell proliferation assay (CellTiter 96 AQueous) in U937 cells; conditions: Homo sapiens, U-937, 72 h, read-out: GI50 (µM) ± SE U937
Description: as §3, §4

IC50 [1] | IC50 [2] | GI50 [4] | IC50 (µM) ± SE HDAC1 [1] | IC50 (µM) ± SE HDAC6 [2] | inhibition at 100 µM [5] | Release of SAHA (%) [6] | IC50 [7] | IC50 [8] | GI50 [9] | Compound | acetylation levels of H3 [3] | tubulin acetylation [3]
31.7 ± 4.75 µM | 2.24 ± 0.05 µM | 31.8 ± 0.57 µM |  |  |  |  |  |  |  | CCCCOc1ccc(CC(=O)NO)cc1 [Bufexamac (8), bufexamac, reference compound] | not affected | hyperacetylation of tubulin
1.52 ± 0.02 µM | 2.11 ± 0.02 µM | 1.02 ± 0.09 µM | low micromolar range | low micromolar range | 35% | 2.2% | 3.25 ± 0.02 µM | 5.3 ± 0.59 µM | 0.49 ± 0.09 µM | CC(C)NC(=O)ONC(=O)CCCCCCC(=O)Nc1ccccc1 [Compound 2a, [(8-Anilino-8-oxo-octanoyl)amino]N-isopropylcarbamate] |  | 
0.74 ± 0.01 µM | 0.637 ± 0.002 µM | 1.06 ± 0.11 µM |  |  | 52% | 0.5% | 1.89 ± 0.04 µM | 3.02 ± 0.03 µM | 0.68 ± 0.09 µM | O=C(CCCCCCC(=O)Nc1ccccc1)NOC(=O)NCc1ccccc1 [Compound 2b, [(8-Anilino-8-oxo-octanoyl)amino]N-benzylcarbamate] |  | 
0.79 ± 0.01 µM | 0.58 ± 0.01 µM | 0.99 ± 0.17 µM |  |  | 68% | 14.5% | 1.42 ± 0.53 µM | 2.07 ± 0.04 µM | 0.88 ± 0.13 µM | CCNC(=O)ONC(=O)CCCCCCC(=O)Nc1ccccc1 [Compound 2c, [(8-Anilino-8-oxo-octanoyl)amino]N-ethylcarbamate] |  | 
